Values of other authors as cited in US9572781B2, “Orally disintegrating tablet compositions comprising combinations of non-opioid and opioid analgesics” (Adare Pharmaceuticals, Inc., priority 2009, dated 2017).

CC(=O)Nc1ccc(O)cc1 [acetaminophen]
Drug detectable (after about 8 hours): only traces | Time to peak plasma concentrations (following oral administration): 30 to 60 min
